The values below come from US20140086839A1, “QUINOLONE ANALOGS FOR TREATING AUTOIMMUNE DISEASES” (Tel HaShomer Medical Research Infrastructure and Services …, priority 2011, published 2014).

Data set [1] in a line: XTT cell viability of PHA-stimulated human PBMCs from healthy subjects. It counts as cell-based. To be noted: PHA 20 μg/ml, read-out: maximal effect on viability of human PBMCs (decrease). Here is the method: FIG. 6 is a histogram depicting the effect of CX-5461 on viability of human PBMCs. Human PBMCs were plated in DMEM+10% FCS+P/S+Q and 20 μg/ml PHA (400,000 cell/well) in the presence of increased concentrations of CX-5461 (50-500 nM) for 72 hours. Cells cultured with PHA alone served as controls. After incubation cell viability was determined by XTT assay;
PBMCs ([…]) from normal, healthy, subjects were plated in the presence of PHA (20 μg/ml) with elevated concentrations of CX-5461 (50-500 nM) for 72 hours. Cells plated in absence of CX-5461 served as controls.
In general terms: Tetrazolium assays rely on reduction of a dye to a coloured formazan, in cell work by metabolically active cells.

Data set [2] relates to MOG-induced EAE. Description: MOG-induced EAE, CX-5461 prophylactic treatment initiated at induction phase. Format: in vivo. The following applies: for Cumulative disease score / Disease onset / Maximal clinical score: 9 days. Here is the method:
(§1) EAE was induced in female C57BL/6 mice, 8 weeks of age, by subcutaneous immunization to the flank of emulsion (1:1 ratio volume/volume) containing […] peptide dissolved in phosphate-buffered saline (PBS) (at a concentration 2 mg/ml) and 0.5 mg Mycobacterium Tuberculosis H37Ra (Difco, Detroit, Mich.) in […] incomplete Freund's adjuvant (Sigma, St. Louis, Mo.). Pertussis toxin 200 ng/mouse (dissolved in […] PBS (List Biological Laboratories, Campbell, Calif.) was injected intra-peritoneal on the day of immunization and again two days later. Mice were monitored daily for clinical signs of EAE, scored as follows: 1-flaccid tail; 1.5—hind limb weakness; 2—paralyzed hind limbs and poor righting ability; 2.5—forelimb weakness, paralyzed hind limbs, paralyzed tail; 3—four limbs paralysis, inability to right; 4—quadriplegia; 5.0—moribund or death of the animal after preceding clinical disease. Animal reaching a score of 4 were scarified using CO2. Mice were kept in an SPF (Specific Pathogen Free) environment. Animal breeding and maintenance and all experimental protocols were performed in accordance with the Israeli Council for Animal Care guidelines and all experiments were approved by Sheba IRB Animal Care Ethical Committee.
EAE was induced in female C57Bl/6J female mice (8 weeks old) as described above. Treatment with CX-5461 was initiated on the day of induction and continued till the clinical signs of EAE appeared in the control animal group (In 2 out of the 7 mice clinical signs of EAE appeared). CX-5461 was administered orally to each animal; the following doses of CX-5461 in 0.2 ml of vehicle were used: 12.5 mg/kg (n=6 mice), 25 mg/kg (n=6 mice) and 50 mg/kg (n=7 mice) in 0.2 ml of vehicle. Vehicle treated mice served as controls (n=7 mice). Treatment continued for 9 days post induction, until the first sign of EAE (grade 1) appeared in the vehicle animal group (in 2 out of 7 mice). Mice were monitored daily for clinical signs of EAE up to 42 days post induction.

For data set [3], the system named is neural progenitor cells (NPCs). Description: XTT cell viability assay of neuronal progenitor cells. To be noted: 20 nM, 72 hours. Format: cell-based, mice. Here is the method: (§2) FIG. 8 is a histogram depicting the effects of CX-5461 on viability of neuronal progenitor cells (NPCs). Mouse NPCs were plated in neurospheres medium containing basic FGF and EGF at 20 ng/ml each (26,000 cell/well) in the presence of increased concentrations of CX-5461 (20-500 nM) for 72 hours. Cells cultured without CX-5461 served as controls. Following incubation cell viability was determined by XTT assay;
(§3) NPCs derived from the subventricular zone of the lateral ventricle of adult mice were allowed to proliferate in the presence of increased concentrations of CX-5461 (20 nM to 500 nM) for 72 hours, and cell viability was tested using XTT assay.

Experiment in data set [4]: as above
Format: cell-based, mice. To be noted: read-out: decrease in NPC cell viability. Here is the method:
as §2, §3

A short description of data set [5]: XTT cell viability assay of PHA-stimulated mouse splenocytes. Format: cell-based. The method, then:
FIG. 5 is a histogram depicting the effect of CX-5461 on viability of mouse splenocytes. Mouse splenocytes were plated in DMEM+10% FCS+P/S+Q and 10 μg/ml PHA (250,000 cell/well) in the presence of increased concentrations of CX-5461 (50-4000 nM) for 72 hours. Cells cultured with PHA alone served as controls. Following incubation cell viability was determined by XTT assay;
Cells viability was assessed by the 2,3 bis[2-Methoxy-4-nitro-5-sulfophenyl]-2H-tetrazolium-5-carboxanilide (XTT) as say (Biological Industries, Kibbutz Beit Hemeek, Israel) which measures the reduction of a tetrazolium component (XTT) into soluble formazan product by the mitochondria of viable cells. The intensity of the dye obtained is proportional to the number of metabolic active cells. Mouse splenocytes were plated in presence of PHA ([…]) and elevated concentrations of CX-5461 (50-4000 nM) for 72 hours. Cells plated in absence of CX-5461 served as controls. Following incubation, cell viability was measured by 2,3-bis-(2-methoxy-4-nitro-5-sulfophenyl)-2H-tetrazolium-5-carboxanilide (XTT) assay according to manufacturer's instructions (Biological Industries, Kibbutz Beit Hemeek, Israel). The intensity of the dye obtained is proportional to the number of metabolic active cells.

For data set [6], the system named is MOG-induced EAE. Description: MOG-induced EAE, CX-5461 treatment initiated at clinical onset. It counts as in vivo. The method, then:
as §1
EAE was induced in mice as described in Example 6, hereinabove.
EAE was induced in female C57/6J female mice as described above. Treatment with CX-5461 was administered orally in 0.2 ml of vehicle with the following concentrations: 12.5 mg/kg/d (n=11 mice) and 25.0 mg/kg/d (n=8 mice). Vehicle treated mice served as controls (n=9 mice). CX-5461 treatment was initiated from the day of disease onset (score 0.5 or 1.0) for the following 14 days. The day of disease onset was evaluated for each animal daily.

Setting [7] is: 12.5 mg/kg/day oral from day of EAE induction.
Setting [8] is: 25.0 mg/kg/day oral from day of EAE induction.
[9] abbreviates: 12.5 mg/kg/day oral from disease onset, 14 days.
Setting [10] is: 25 mg/kg/day oral from disease onset.

`Cc1cnc(CNC(=O)c2c(=O)c3ccc(N4CCCN(C)CC4)nc3n3c2sc2ccccc23)cn1` [CX-5461, 2-(4-methyl-1,4-diazepan-1-yl)-N-((5-methylpyrazin-2-yl)methyl)-5-oxo-5H-benzo[4,5]thiazolo[3,2-a][1,8]naphthyridine-6-carboxamide]: the cytotoxicity at 72 h, 50 nM in data set [1] was 35%. In the data set on MOG-induced EAE [2] (setting [7]), the Cumulative disease score worked out at 16.25 ± 3.94, the Disease onset was determined as 20.83 ± 1.36 days p.i and the Maximal clinical score stood at 2.83 ± 0.49. In the data set with MOG-induced EAE [2] (setting [8]), the Cumulative disease score was determined as 14.1 ± 3.5, the Disease onset amounted to 23.1 ± 1.2 days p.i and the Maximal clinical score was 3.3 ± 1.0. Besides, the “time to death (toxicity)” value in the data set on MOG-induced EAE [2] (50 mg/kg/day oral, days of treatment post-induction, mean) was found to be 7.6 ± 0.5 days. Further, the toxic signs entry in the data set with MOG-induced EAE [2] (50 mg/kg/day oral, since day 5 of treatment) was “change in the color and brightness of their fur, loss of weight and change in behavior”. Further, the “delay of EAE onset versus vehicle-control group” value with MOG-induced EAE [2] (all CX-5461 treated groups, not dependent on concentration) is reported as 10 days. Moreover, in data set [3], the “effect on NPCs viability” value was “no effect”. In addition, the cytotoxicity at 72 h, 50 nM in data set [4] (mouse, 50 nM) turned out to be 30%. In addition, the cytotoxicity at 72 h in data set [4] (mouse, 100, 250 and 500 nM) was around 50%. Besides, in data set [5] (50 nM, read-out: decrease in cell viability of splenocyte cells), the cytotoxicity at 72 h, 50 nM came out at 27%. Besides, the cytotoxicity at 72 h in data set [5] (500 nM and higher concentrations, read-out: decrease in cell viability of splenocyte cells (maximal)) lay in the range of 97 to 100%. Further, in the data set with MOG-induced EAE [6] (setting [9]), the Cumulative disease score is listed as 18.59 ± 4.26, the “Maximal EAE score” value is listed as 2 ± 0.47 and the survival result is given as “all the animals survived”. Moreover, in the data set on MOG-induced EAE [6] (setting [10]), the EAE score is recorded as 0.88±0.18; the toxic effects result is “change in their fur color and brightness and loss of weight”. Moreover, the “time to death (toxic effects)” value with MOG-induced EAE [6] (25 mg/kg/day oral from disease onset, all mice died) is 10.1 ± 0.5 days.
